Assay results reported in ChEMBL document CHEMBL5036341, “Design, synthesis and biological evaluation of aminopyrimidine derivatives bearing a 4,5,6,7-tetrahydrothieno [3,2-c]pyridine as potent EGFR inhibitors” (Eur J Med Chem, 2021).
pIC50: −log10 of the molar value. Calls of active or inactive are those of the source. No cut-off for these calls is given here.

Key:
A549 [1] = assay: Cytotoxicity against human A549 cells assessed as reduction in cell viability measured by MTT assay; type: functional, cell-based
A-431 = assay: Cytotoxicity against human A-431 cells assessed as reduction in cell viability measured by MTT assay; type: functional, cell-based
NCI-H1975 [2] = assay: Cytotoxicity against human NCI-H1975 cells assessed as reduction in cell viability measured by MTT assay; type: functional, cell-based
Homo sapiens [3] = organism: Homo sapiens; assay: Inhibition of EGFR L858R/T790M double mutant (unknown origin) measured at 0.1 uM by ELISA
Homo sapiens [4] = organism: Homo sapiens; assay: Inhibition of EGFR L858R/T790M double mutant (unknown origin) measured at 1 uM by ELISA
[5] = Inhibition of EGFR L858R/T790M double mutant (unknown origin) measured by ELISA; set-up: species or system Homo sapiens
[6] = biological target: Epidermal growth factor receptor (Homo sapiens, UniProt P00533); assay: Inhibition of wild type EGFR (unknown origin) measured by ELISA
Homo sapiens [7] = organism: Homo sapiens; assay: Selectivity ratio of IC50 for EGFR L858R/T790M double mutant (unknown origin) to IC50 for wildtype EGFR (unknown origin) measured by ELISA
A549 [8] = assay: Inhibition of cell migration in human A549 cells measured after 12 to 36 hours by fluorescence microscopy based wound healing assay; type: functional; conditions: dose 1-5 µM, time 12-36 hrs
[9] = Inhibition of EGFR L858R/T790M/C797S triple mutant (unknown origin) measured by ELISA; set-up: species or system Homo sapiens
A549 [10] = assay: Antiproliferative activity against human A549 cells assessed as reduction in cell growth incubated for 24 hrs by AO/EB staining based inverted fluorescence microscopic analysis; type: functional; conditions: dose 1-25 µM
NCI-H1975 [11] = assay: Induction of apoptosis in human NCI-H1975 cells assessed as live cells at 0.2 uM measured after 48 hrs by annexinV-FITC and propidium iodide double staining based flow cytometry analysis (reference value: 94.92 %); type: functional
NCI-H1975 [12] = assay: Induction of apoptosis in human NCI-H1975 cells assessed as early apoptotic cells at 0.2 uM measured after 48 hrs by annexinV-FITC and propidium iodide double staining based flow cytometry analysis (reference value: 3.24 %); type: functional
NCI-H1975 [13] = assay: Induction of apoptosis in human NCI-H1975 cells assessed as late apoptotic cells at 0.2 uM measured after 48 hrs by annexinV-FITC and propidium iodide double staining based flow cytometry analysis (reference value: 1.56 %); type: functional
NCI-H1975 [14] = assay: Induction of apoptosis in human NCI-H1975 cells assessed as necrotic cells at 0.2 uM measured after 48 hrs by annexinV-FITC and propidium iodide double staining based flow cytometry analysis (reference value: 0.28 %); type: functional
NCI-H1975 [15] = assay: Induction of apoptosis in human NCI-H1975 cells assessed as live cells at 1 uM measured after 48 hrs by annexinV-FITC and propidium iodide double staining based flow cytometry analysis (reference value: 94.92 %); type: functional
NCI-H1975 [16] = assay: Induction of apoptosis in human NCI-H1975 cells assessed as early apoptotic cells at 1 uM measured after 48 hrs by annexinV-FITC and propidium iodide double staining based flow cytometry analysis (reference value: 3.24 %); type: functional
NCI-H1975 [17] = assay: Induction of apoptosis in human NCI-H1975 cells assessed as late apoptotic cells at 1 uM measured after 48 hrs by annexinV-FITC and propidium iodide double staining based flow cytometry analysis (reference value: 1.56 %); type: functional
NCI-H1975 [18] = assay: Induction of apoptosis in human NCI-H1975 cells assessed as necrotic cells at 1 uM measured after 48 hrs by annexinV-FITC and propidium iodide double staining based flow cytometry analysis (reference value: 0.28 %); type: functional
NCI-H1975 [19] = assay: Induction of apoptosis in human NCI-H1975 cells assessed as live cells at 5 uM measured after 48 hrs by annexinV-FITC and propidium iodide double staining based flow cytometry analysis (reference value: 94.92 %); type: functional
NCI-H1975 [20] = assay: Induction of apoptosis in human NCI-H1975 cells assessed as early apoptotic cells at 5 uM measured after 48 hrs by annexinV-FITC and propidium iodide double staining based flow cytometry analysis (reference value: 3.24 %); type: functional
NCI-H1975 [21] = assay: Induction of apoptosis in human NCI-H1975 cells assessed as late apoptotic cells at 5 uM measured after 48 hrs by annexinV-FITC and propidium iodide double staining based flow cytometry analysis (reference value: 1.56 %); type: functional
NCI-H1975 [22] = assay: Induction of apoptosis in human NCI-H1975 cells assessed as necrotic cells at 5 uM measured after 48 hrs by annexinV-FITC and propidium iodide double staining based flow cytometry analysis (reference value: 0.28 %); type: functional
A549 [23] = assay: Induction of apoptosis in human A549 cells assessed as chromatin contraction at 25 uM measured after 24 hrs by AO/EB staining based inverted fluorescence microscopic analysis; type: functional, cell-based

Sequence of Epidermal growth factor receptor (P00533 whole entry): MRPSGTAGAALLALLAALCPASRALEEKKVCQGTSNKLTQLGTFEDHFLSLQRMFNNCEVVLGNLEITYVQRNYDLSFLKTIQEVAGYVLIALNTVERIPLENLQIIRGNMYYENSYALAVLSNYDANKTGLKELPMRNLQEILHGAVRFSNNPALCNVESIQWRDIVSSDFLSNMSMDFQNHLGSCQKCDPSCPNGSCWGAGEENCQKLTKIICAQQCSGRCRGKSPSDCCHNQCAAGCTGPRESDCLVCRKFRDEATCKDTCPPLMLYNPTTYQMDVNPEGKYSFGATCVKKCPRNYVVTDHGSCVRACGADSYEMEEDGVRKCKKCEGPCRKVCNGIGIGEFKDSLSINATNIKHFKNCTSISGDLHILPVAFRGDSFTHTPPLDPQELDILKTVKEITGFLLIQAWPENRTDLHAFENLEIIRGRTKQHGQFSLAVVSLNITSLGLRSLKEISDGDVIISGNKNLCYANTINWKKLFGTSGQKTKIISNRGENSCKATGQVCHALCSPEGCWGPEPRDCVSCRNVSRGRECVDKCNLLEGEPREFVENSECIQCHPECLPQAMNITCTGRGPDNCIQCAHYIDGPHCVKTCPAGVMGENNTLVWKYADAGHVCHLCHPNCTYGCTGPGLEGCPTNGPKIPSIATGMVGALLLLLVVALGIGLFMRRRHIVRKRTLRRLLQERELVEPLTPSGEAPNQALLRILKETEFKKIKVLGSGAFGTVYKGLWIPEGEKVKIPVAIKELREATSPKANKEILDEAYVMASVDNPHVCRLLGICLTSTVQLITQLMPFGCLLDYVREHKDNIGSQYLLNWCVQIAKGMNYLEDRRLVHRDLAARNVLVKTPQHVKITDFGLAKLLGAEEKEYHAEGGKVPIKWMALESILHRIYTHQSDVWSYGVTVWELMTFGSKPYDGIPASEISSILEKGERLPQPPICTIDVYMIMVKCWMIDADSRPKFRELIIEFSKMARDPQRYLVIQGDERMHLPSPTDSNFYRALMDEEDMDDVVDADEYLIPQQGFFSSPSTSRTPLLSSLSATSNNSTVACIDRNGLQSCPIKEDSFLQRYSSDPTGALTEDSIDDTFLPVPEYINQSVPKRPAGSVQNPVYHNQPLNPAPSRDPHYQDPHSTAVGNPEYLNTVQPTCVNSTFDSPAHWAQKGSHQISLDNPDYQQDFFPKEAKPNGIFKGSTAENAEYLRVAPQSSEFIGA

SMILES	pIC50 (A549 [1])	pIC50 (A-431)	pIC50 (NCI-H1975 [2])	inhibition (Homo sapiens [3]) [%]	inhibition (Homo sapiens [4]) [%]	further results
C=CC(=O)Nc1ccc(OC)c(Nc2ncc(Cl)c(N3CCc4sccc4C3)n2)c1	5.16	4.04	6.10	–	–	–
COc1cc(NC(=O)CN2CCC(C)CC2)ccc1Nc1nccc(N2CCc3sccc3C2)n1	–	–	–	4.5	26.1	–
COc1cc(NC(=O)CN2CCN(C)CC2)ccc1Nc1nccc(N2CCc3sccc3C2)n1	–	–	–	16.3	58.3	–
C=CC(=O)Nc1cc(Nc2nccc(N3CCc4sccc4C3)n2)c(OC)cc1N1CCN(C)CC1	–	–	–	33.5	56.5	–
CCN(CC)CC(=O)Nc1ccc(Nc2nccc(N3CCc4sccc4C3)n2)c(OC)c1	–	–	–	3.6	20.3	–
CCN1CCN(CC(=O)Nc2ccc(Nc3nccc(N4CCc5sccc5C4)n3)c(OC)c2)CC1	–	–	–	9.9	36.6	–
CCC(=O)Nc1cc(Nc2nccc(N3CCc4sccc4C3)n2)c(OC)cc1N(C)CCN(C)C	–	–	–	67.7	82.2	–
C/C=C/C(=O)Nc1cc(Nc2ncc(Cl)c(N3CCc4sccc4C3)n2)c(OC)cc1N(C)CCN(C)C	6.60	6.82	6.88	–	–	pIC50 [5]: 7.92; pIC50 [6]: 6.45; Ratio IC50 (Homo sapiens [7]): 2.9
C=CC(=O)Nc1cc(Nc2nccc(N3CCc4sccc4C3)n2)c(OC)cc1N(C)C	–	–	–	2.3	18.2	–
COc1cc(NC(=O)CN2CCOCC2)ccc1Nc1nccc(N2CCc3sccc3C2)n1	–	–	–	3.2	13.9	–
CCC(=O)Nc1cc(Nc2ncc(Cl)c(N3CCc4sccc4C3)n2)c(OC)cc1N(C)CCN(C)C	6.34	5.66	7.07	97.9	99.2	inhibition (A549 [8]): Dose-Dependent Effect; pIC50 [5]: 8.40; pIC50 [6]: 6.77; pIC50 [9]: 6.44; Activity (A549 [10]): Dose-Dependent Effect; Activity (NCI-H1975 [11]): 90.82%; Activity (NCI-H1975 [12]): 5.23%; Activity (NCI-H1975 [13]): 3.44%; Activity (NCI-H1975 [14]): 0.51%; Activity (NCI-H1975 [15]): 86.69%; Activity (NCI-H1975 [16]): 7.49%; Activity (NCI-H1975 [17]): 4.98%; Activity (NCI-H1975 [18]): 0.84%; Activity (NCI-H1975 [19]): 71.42%; Activity (NCI-H1975 [20]): 15.91%; Activity (NCI-H1975 [21]): 11.42%; Activity (NCI-H1975 [22]): 1.25%; Activity (A549 [23]): Active; Ratio IC50 (Homo sapiens [7]): 42.5
COc1cc(NC(=O)CN(C)CCN(C)C)ccc1Nc1nccc(N2CCc3sccc3C2)n1	–	–	–	20.9	69.7	–
COc1cc(N(C)CCN(C)C)c(NC(=O)/C=C/C(C)C)cc1Nc1ncc(Cl)c(N2CCc3sccc3C2)n1	5.34	4.67	6.33	–	–	–
C=CC(=O)Nc1cc(Nc2ncc(Cl)c(N3CCc4sccc4C3)n2)c(OC)cc1N(C)CCN(C)C	6.78	5.26	6.62	85	97	pIC50 [5]: 8.41; pIC50 [6]: 8.19; Ratio IC50 (Homo sapiens [7]): 7
CCN(CC)C/C=C/C(=O)Nc1ccc(OC)c(Nc2nccc(N3CCc4sccc4C3)n2)c1	–	–	–	36.8	77.5	–
C=CC(=O)Nc1cc(Nc2nccc(N3CCc4sccc4C3)n2)c(OC)cc1N1CCCC1	–	–	–	14.9	43.5	–
C=C(Cl)C(=O)Nc1cc(Nc2ncc(Cl)c(N3CCc4sccc4C3)n2)c(OC)cc1N(C)CCN(C)C	6.18	4.86	7.04	–	–	inhibition (A549 [8]): Dose-Dependent Effect; pIC50 [5]: 8.44; pIC50 [6]: 7.02; pIC50 [9]: 6.33; Activity (A549 [10]): Dose-Dependent Effect; Activity (A549 [23]): Active; Ratio IC50 (Homo sapiens [7]): 26.7
C=CC(=O)Nc1cc(Nc2nccc(-c3cn(C)c4ccccc34)n2)c(OC)cc1N(C)CCN(C)C [OSIMERTINIB]	–	–	[…]	97.3	99.5	pIC50 [5]: 8.47; pIC50 [9]: 6.89
C=CC(=O)Nc1cc(Nc2nccc(N3CCc4sccc4C3)n2)c(OC)cc1N1CCN(CC)CC1	–	–	–	5.4	15.8	–
COc1cc(N(C)CCN(C)C)c(NC(=O)C=C(C)C)cc1Nc1ncc(Cl)c(N2CCc3sccc3C2)n1	5.29	< 4.30	6.55	–	–	pIC50 [5]: 7.79
COc1cc(NC(=O)CN2CCN(CCO)CC2)ccc1Nc1nccc(N2CCc3sccc3C2)n1	–	–	–	10.9	45.2	–
C=CC(=O)Nc1cc(Nc2nccc(N3CCc4sccc4C3)n2)c(OC)cc1N1CCOCC1	–	–	–	20.9	50.6	–
C=CC(=O)Nc1cc(Nc2nccc(N3CCc4sccc4C3)n2)c(OC)cc1N(CC)CC	–	–	–	13.5	42.6	–
COc1ccc(NC(=O)/C=C/CN(C)C)cc1Nc1nccc(N2CCc3sccc3C2)n1	–	–	–	42.2	80.1	–
C=CC(=O)Nc1cc(Nc2nccc(N3CCc4sccc4C3)n2)c(OC)cc1N(C)CCN(C)C	–	–	–	54.1	76.3	–
CCC(=O)Nc1ccc(OC)c(Nc2ncc(Cl)c(N3CCc4sccc4C3)n2)c1	4.51	< 3.70	4.82	–	–	–
C=CC(=O)Nc1cc(Nc2ncc(Cl)c(N3CCc4sccc4C3)n2)c(OC)cc1N1CCN(C)CC1	5.81	< 4.30	6.71	–	–	pIC50 [5]: 6.53; pIC50 [6]: < 5.40; pIC50 [9]: 6.18; Ratio IC50 (Homo sapiens [7]): > 13.6
COc1cc(NC(=O)CN(C)C)ccc1Nc1nccc(N2CCc3sccc3C2)n1	–	–	–	5	22.5	–
